Structures are written as SMILES. pEC50, pKi: −log10 of the molar value.

In test [1] the target is human adenosine A2B receptor (Homo sapiens (Human), UniProt P29275). The experiment in a line: Adenosine A2B Receptor Cyclic AMP GS Assay. The class given is cell-based. To be noted: HEK-293 cells, agonist NECA at 12 nM, cAMP accumulation; read-out: A2B—cAMP_EC50. On the procedure:
Stably transfected HEK-293 cells expressing the human adenosine A2B receptor (Perkin Elmer) were maintained in MEM culture medium with 10% FBS and 100 μg/mL Geneticin (Life Technologies). 18 to 24 hours prior to assay, geneticin was removed from culture. The cisbio cAMP-GS Dynamic kit utilizing the FRET (Fluorescence Resonance Energy Transfer) technology was used to measure cAMP accumulation in the cells. Compounds of the present disclosure at an appropriate concentration were mixed with 10000 cells/well in white 96 well half area plates (Perkin Elmer) for 30 min at room temperature gently shaking. Agonist, NECA (R&D Technologies) at 12 nM was added to each well for 60 min at room temperature gently shaking. Detection reagents, d2-labeled cAMP (acceptor) and anti-cAMP cryptate (donor) were added to each well for 60 min at RT gently shaking. Plates were read on Pherastar (BMG Labtech), fluorescence ratio 665/620 was calculated and EC50 determination was performed by fitting the curve of percent of control versus the log of the compound concentration using GraphPad Prism.

Test [2] deals with Adenosine A2A receptor (Tag-lite Adenosine A2A labeled cells) (Homo sapiens (Human), UniProt P29274). The test is described as follows: A2A Tag-lite HTRF Assay. Format: binding. To be noted: displacement of Adenosine A2A Receptor Red antagonist fluorescent ligand, 12.5 nM. The source says: The final concentration of DMSO was 1%.
Chain of Adenosine A2A receptor (Tag-lite Adenosine A2A labeled cells) (P29274 whole entry): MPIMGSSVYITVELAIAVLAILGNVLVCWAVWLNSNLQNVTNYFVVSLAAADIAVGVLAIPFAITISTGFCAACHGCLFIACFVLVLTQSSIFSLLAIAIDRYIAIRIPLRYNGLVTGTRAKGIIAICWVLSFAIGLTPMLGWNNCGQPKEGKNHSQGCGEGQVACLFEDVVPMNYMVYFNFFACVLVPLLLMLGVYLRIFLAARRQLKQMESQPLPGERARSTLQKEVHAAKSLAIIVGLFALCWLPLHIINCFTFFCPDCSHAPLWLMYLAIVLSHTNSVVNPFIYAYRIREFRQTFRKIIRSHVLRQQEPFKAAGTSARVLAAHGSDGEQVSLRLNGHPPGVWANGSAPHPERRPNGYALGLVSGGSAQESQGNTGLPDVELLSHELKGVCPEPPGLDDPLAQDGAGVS

Chain of human adenosine A2B receptor (P29275 whole entry): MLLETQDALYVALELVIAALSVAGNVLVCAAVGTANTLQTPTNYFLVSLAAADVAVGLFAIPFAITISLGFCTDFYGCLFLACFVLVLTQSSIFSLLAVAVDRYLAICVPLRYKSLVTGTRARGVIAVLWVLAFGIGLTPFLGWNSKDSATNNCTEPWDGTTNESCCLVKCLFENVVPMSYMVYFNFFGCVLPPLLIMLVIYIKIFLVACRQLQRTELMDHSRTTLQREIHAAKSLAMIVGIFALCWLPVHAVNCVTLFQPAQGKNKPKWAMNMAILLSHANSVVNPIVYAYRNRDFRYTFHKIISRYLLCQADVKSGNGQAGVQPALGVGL

Turning to `Cc1cccc(Cn2nc3c(N)nc(-c4cccc(C#N)c4)c(-c4ccncc4)c3n2)n1` [Example 25, 3-(4-amino-2-((6-methylpyridin-2-yl)methyl)-7-(pyridin-4-yl)-2H-[1,2,3]triazolo[4,5-c]pyridin-6-yl)benzonitrile], in test [1], the pEC50 is not below 8.00. Moreover, the negative logarithm of the Ki (pKi) in test [2] is not below 8.00.
Take `Cc1cccc(Cn2nc3c(N)nc(-c4cccc(C#N)c4)c(-c4ccncc4C)c3n2)n1` [Example 26, 3-(4-amino-2-((6-methylpyridin-2-yl)methyl)-7-(3-methylpyridin-4-yl)-2H-[1,2,3]triazolo[4,5-c]pyridin-6-yl)benzonitrile]: the pEC50 in test [1] was not below 8.00. The molecule also had a pKi in test [2] not below 8.00.
Consider `Cc1cccc(Cn2nc3c(N)nc(-c4cccc(C#N)c4)c(-c4ccc(=O)n(C)c4)c3n2)n1` [Example 27, 3-(4-amino-7-(1-methyl-6-oxo-1,6-dihydropyridin-3-yl)-2-((6-methylpyridin-2-yl)methyl)-2H-[1,2,3]triazolo[4,5-c]pyridin-6-yl)benzonitrile], for which the pEC50 in test [1] was 7.00 to 8.00. In test [2], this molecule had a pKi not below 8.00.
In the same order, the values of `CCn1nccc1-c1c(-c2cccc(C#N)c2)nc(N)c2nn(Cc3cccc(C)n3)nc12` [Example 28, 3-(4-amino-7-(1-ethyl-1H-pyrazol-5-yl)-2-((6-methylpyridin-2-yl)methyl)-2H-[1,2,3]triazolo[4,5-c]pyridin-6-yl)benzonitrile] are not below 8.00 and not below 8.00.
Take `Cc1cccc(Cn2nc3c(N)nc(-c4cccc(C#N)c4)c(-c4ocnc4C)c3n2)n1` [Example 29, 3-(4-amino-7-(4-methyloxazol-5-yl)-2-((6-methylpyridin-2-yl)methyl)-2H-[1,2,3]triazolo[4,5-c]pyridin-6-yl)benzonitrile]: the pEC50 in test [1] was not below 8.00. Further, the pKi in test [2] is not below 8.00.
In the case of `N#Cc1cccc(-c2nc(N)c3nn(Cc4ncccc4F)nc3c2-c2ccncn2)c1` [Example 30, 3-(4-amino-2-((3-fluoropyridin-2-yl)methyl)-7-(pyrimidin-4-yl)-2H-[1,2,3]triazolo[4,5-c]pyridin-6-yl)benzonitrile], in test [1], the pEC50 was not below 8.00. For the same molecule, the pKi in test [2] was not below 8.00.
Regarding `N#Cc1cccc(-c2nc(N)c3nn(Cc4ncccc4F)nc3c2-c2ccncc2)c1` [Example 31, 3-(4-amino-2-((3-fluoropyridin-2-yl)methyl)-7-(pyridin-4-yl)-2H-[1,2,3]triazolo[4,5-c]pyridin-6-yl)benzonitrile], the pEC50 in test [1] was not below 8.00. The molecule further had a negative-log Ki (pKi) in test [2] not below 8.00.
For the molecule `Cn1cc(-c2c(-c3cccc(C#N)c3)nc(N)c3nn(Cc4ncccc4F)nc23)ccc1=O` [Example 32, 3-(4-amino-2-((3-fluoropyridin-2-yl)methyl)-7-(1-methyl-6-oxo-1,6-dihydropyridin-3-yl)-2H-[1,2,3]triazolo[4,5-c]pyridin-6-yl)benzonitrile], the pEC50 in test [1] is 7.00 to 8.00. The negative logarithm of the Ki (pKi) in test [2] is not below 8.00.
For `CCn1nccc1-c1c(-c2cccc(C#N)c2)nc(N)c2nn(Cc3ncccc3F)nc12` [Example 33, 3-(4-amino-7-(1-ethyl-1H-pyrazol-5-yl)-2-((3-fluoropyridin-2-yl)methyl)-2H-[1,2,3]triazolo[4,5-c]pyridin-6-yl)benzonitrile], in that order: not below 8.00 and not below 8.00.
As for `CC(C)n1nccc1-c1c(-c2cccc(C#N)c2)nc(N)c2nn(Cc3ncccc3F)nc12` [Example 34, 3-(4-amino-2-((3-fluoropyridin-2-yl)methyl)-7-(1-isopropyl-1H-pyrazol-5-yl)-2H-[1,2,3]triazolo[4,5-c]pyridin-6-yl)benzonitrile], the pEC50 in test [1] was not below 8.00. For the same molecule, in test [2], the pKi was not below 8.00.
Consider `Cn1nccc1-c1c(-c2cccc(C#N)c2)nc(N)c2nn(Cc3ncccc3F)nc12` [Example 35, 3-(4-amino-2-((3-fluoropyridin-2-yl)methyl)-7-(1-methyl-1H-pyrazol-5-yl)-2H-[1,2,3]triazolo[4,5-c]pyridin-6-yl)benzonitrile], for which the pEC50 in test [1] was not below 8.00. Further, the pKi in test [2] was not below 8.00.

These data come from patent publication US11390624B2, “Pyrazolopyridines and triazolopyridines as A2A / A2B inhibitors” (Incyte Corporation, priority 2019, dated 2022).
